{
  "source": "paper PMC7139549",
  "about": "“TLD1433 Photosensitizer Inhibits Conjunctival Melanoma Cells in Zebrafish Ectopic and Orthotopic Tumour Models” (Cancers, 2020)",
  "key": {"eye melanoma cells": {"tested_on": "eye melanoma cells", "test": "SRB cell viability assay, eye melanoma cells", "assay_type": "cell-based, Human", "method": "TLD1433 is known to generate reactive oxygen species (ROS) with high quantum efficacy in many cancer cell lines. However, there is no report of the in vitro toxicity of this compound in eye melanoma (UM) cell lines. We determined the cell viability of three conjunctival melanoma cell lines (CRMM1, CRMM2 and CM2005.1), and three uveal melanoma cell lines (OMM1, OMM2.5, MEL270) in the presence of TLD1433, both in the dark or under green light irradiation (21 mW/cm^2, 19 J/cm^2, 520 nm, 15 min), and compared this viability to epidermoid carcinoma A431 and cutaneous melanoma A375 cell lines under the same conditions. […] The phototoxicity index (PI), defined as the ratio of the dark EC50 to the light EC50, was also calculated and represents the amplification of TLD1433 activity with a light trigger. […]\nAt day 0, cells were detached using 1mL of trypsin, resuspended in 4 mL of media and transferred to a 15 mL corning falcon tube. Cells were counted using trypan blue and BioRad® TC20™ automated cell counter (Figure 11). Dilutions of 6000 (CRMM1), 6000 (CRMM2), 8000 (CM2005.1), 6000 (OMM1), 6000 (OMM2.5), 6000 (MEL270) 8000 (A431), and 4000 (A375) cells/well were calculated from each cell suspension at a final volume of 6 mL using the following formula: Vc=(Vt×10C)/Lc where Vt = total volume of solution, C = number of cells per well/per 100 μL and Lc = live cells count (cells/mL). […]"}, "[1]": {"tested_on": "CM engrafted zebrafish embryos", "test": "Maximum tolerated dose in CM engrafted zebrafish embryos (ectopic and orthotopic model)", "assay_type": "in vivo, Zebrafish (Danio rerio)", "details": "light-activated", "method": "To engage both CM models for testing the efficacy of TLD1433 as a potential new PDT treatment strategy to combat CM growth, first, the MTD of TLD1433 delivered into zebrafish embryos engrafted with CM cells was measured (Table 2) following the same procedure as already described for wild type embryos (Figure 5 and Table 2). Engrafted embryos were more sensitive to light-activated TLD1433 than non-engrafted embryos (Table 2). MTD concentrations of 4.6 nM and 2.3 mM were delivered by WA, IV and RO administration. […] The TLD1433 concentration in these experiments was not increased further as the initial treatment was already at the pre-determined MTD.\nFor determining the MTD of the WA of the TLD1433 solution in wild type zebrafish, solutions of 2.3 nM, 4.6 nM, 9.2 nM, 11.5 nM, 23 nM were made before the experiment. At 2.5, 3.5, 4.5, 5.5 dpf, TLD1433 was added to the fish water and maintained for 12 h. At 3, 4, 5, 6 dpf, the fish water was refreshed and after 1 h, embryos were exposed to green light for 90 min (520 nm, 21 mW/cm^2, 114 J/cm^2). For the IV and RO administration, TLD1433 solutions (1.15 mM, 2.3 mM, 4.6 mM, 9.2 mM, 11.5 mM) were prepared before the experiment. At 3, 4, 5, 6 dpf, 1nL of TLD1433 was injected via the dorsal vein or the RO site and maintained for 1 h. After each of the 4 injections, the embryos were exposed to green light for 90 min (520 nm, 21 mW/cm^2, 114 J/cm^2). The images of treated and wild type embryos at 6 dpf were taken using a DFC420C camera coupled to a Leica MZ16FA fluorescence microscope. In order to determine the MTD of tumour cell bearing zebrafish, TLD1433 was performed according to the same procedure, delivered by WA, IV and […] administration as described above for the wild type embryos."}},
  "data": [
    {"molecule": "Cc1ccnc(-c2cc(C)ccn2)c1.Cc1ccnc(-c2cc(C)ccn2)c1.[Cl-].[Cl-].[Ru+2].c1csc(-c2ccc(-c3ccc(-c4nc5c6cccnc6c6ncccc6c5[nH]4)s3)s2)c1", "note": "[TLD1433]", "values": [
      {"measurement": "EC50", "setting": "eye melanoma cells; dark, read-out: EC50 (dark toxicity)", "value": "~1000", "unit": "nM"},
      {"measurement": "EC50 upon light activation (in words)", "setting": "eye melanoma cells; green light 19 J/cm^2", "value": "in the nanomolar regime"},
      {"measurement": "Maximum Tolerated Dose (MTD)", "setting": "[1]; Intravenous 1 nL", "value": 2.3, "unit": "mM"},
      {"measurement": "Maximum Tolerated Dose (MTD)", "setting": "[1]; Retro-orbital 1 nL", "value": 2.3, "unit": "mM"},
      {"measurement": "Maximum Tolerated Dose (MTD)", "setting": "[1]; Water administration", "value": "4.6e-06", "unit": "mM"}
    ]}
  ]
}
